From patent US11866433B2, “Diarylthiohydantoin compound as androgen receptor antagonist” (CHIA TAI TIANQING PHARMACEUTICAL GROUP CO., LTD., priority 2017, dated 2024)

How the values were obtained:
Format in all cases: in vivo
[1] = Pharmacokinetic test of Compound 10 in mice (intravenous and intragastric); details: mouse, plasma, male CD-1 mice; for AUC(0-inf): read-out: Curve Area (0-inf) AUC0-inf; for AUC(0-t): read-out: Curve Area (0-t) AUC0-last; for half-life: read-out: Half Life T1/2 (converted)
Description: Taking male CD-1 mice as test animals, drug concentrations in plasma at different moments after intravenous and intragastric administration of Compound 10 to the mice were determined by the LC/MS/MS method. The pharmacokinetic behavior of Compound 10 in mice was investigated and its pharmacokinetic profile was evaluated.
2.2 Test Animals: Four healthy adult male CD-1 mice were divided into 2 groups, with 2 mice in each group, according to the principle of similar body weight. The animals were purchased from Shanghai Super-BK Laboratory Animal Co., Ltd., with Animal Production License No.: SCXK (Shanghai) 2013-0016.
2.3 Drug Preparation An appropriate amount of sample was weighed, and an appropriate amount of DMSO, PEG400 and water were added successively at a volume ratio of 10:40:50. After stirring and ultrasonic processing, the resulting mixture reached a clear solution state of 0.4 mg/mL for intravenous administration.
An appropriate amount of sample was weighed, and dissolved in a solution of 0.5% CMC+0.2% Tween 80. After stirring and ultrasonic processing, the resulting mixture reached a uniform suspension state of 0.4 mg/mL for intragastric administration.
Four male CD-1 mice were divided into 2 groups, and fasted overnight. The first group was intravenously administered at an administration volume of 2.5 mL/kg in a dose of 1 mg/kg; and the second group was intragastrically administered at an administration volume of 5 mL/kg in a dose of 2 mg/kg.
(§1) After Compound 10 was intravenously administered to the male CD-1 mice, 30 μL of blood was collected at 0.0833, 0.25, 0.5, 1, 2, 4, 8, and 24 h respectively, and placed in test tubes containing 2 μL of EDTA-K2. After Compound 10 was administered to the intragastric administration group, 30 μL of blood was collected at 0.25, 0.5, 1, 2, 4, 8, and 24 h respectively, and placed in test tubes containing 2 μL of EDTA-K2. The test tubes were centrifuged at 3000 g for 15 min to separate the plasma, which was stored at −60° C. The animals were allowed to eat 2 hours after administration.
(§2) After intravenous and intragastric administration to the mice, the content of the test compound in plasma was determined by the LC/MS/MS method. The linear range of the method was 2.00-6000 nmol/L; and the plasma samples were analyzed after the treatment with acetonitrile precipitated protein.

[2] = Tissue distribution test of Compound 27 and Compound 10 (plasma and brain); details: intragastric 2 mg/kg, 2 h after administration, male CD-1 mice
Description: Taking male CD-1 mice as test animals, drug concentrations in plasma and brain after intragastric administration of Compound 27 and Compound 10 to the mice were determined by the LC/MS/MS method, respectively.
2.2 Test Animals: Six healthy adult male CD-1 mice were divided into 2 groups, with 3 mice in each group, according to the principle of similar body weight. The animals were purchased from Shanghai Super-BK Laboratory Animal Co., Ltd., with Animal Production License No.: SCXK (Shanghai) 2013-0016.
An appropriate amount of sample was weighed, and an appropriate amount of DMSO, PEG400 and water were added successively at a volume ratio of 10:40:50. After stirring and ultrasonic processing, the resulting mixture reached a clear solution state of 0.4 mg/mL.
Six male CD-1 mice were divided into 2 groups, fasted overnight, and intragastrically administered at an administration volume of 5 mL/kg in a dose of 2 mg/kg.
(§3) After Compound 27 and Compound 10 were intragastrically administered to the male CD-1 mice, 100 μL of blood was collected by cardiac puncture at 2 h, placed in a test tube containing 2 μl of EDTA-K2, and centrifuged at 3000 g for 15 min to separate 50 μL of plasma, which was stored at −60° C. Meanwhile, brain tissues were collected, washed, then homogenized with 5-fold 15 mM PBS/MeOH (v:v, 2:1), and stored at −60° C. The animals were allowed to eat 2 hours after administration.
(§4) After intragastric administration to the mice, the content of the test compound in plasma and brain was determined by the LC/MS/MS method. The linear range of the method was 2.00-6000 nmol/L; and the plasma samples were analyzed after the treatment with acetonitrile precipitated protein.

[3] = Tissue distribution test of Compound 35 and Compound 58 (plasma and brain); details: intragastric 2 mg/kg, 4 h after administration, male CD-1 mice; for Kp at 4 h / concentration at 4 h: mouse, oral; for Kp at 4 h: brain / plasma, read-out: Brain to Blood Ratio; for concentration at 4 h: plasma
Description: Taking male CD-1 mice as test animals, drug concentrations in plasma and brain after intragastric administration of Compound 35 and Compound 58 to the mice were determined by the LC/MS/MS method, respectively.
2.2 Test Animals: Two healthy adult male CD-1 mice. The animals were purchased from Shanghai Sippr-BK Laboratory Animal Co., Ltd.
An appropriate amount of sample was weighed, and added in a solution of 0.5% CMC+0.2% Tween in water. After stirring and ultrasonic processing, the resulting mixture reached a suspension state of 0.4 mg/mL.
Two male CD-1 mice were fasted overnight, and intragastrically administered at an administration volume of 5 mL/kg in a dose of 2 mg/kg.
as §3, with “Compound 35” for “Compound 27”, “Compound 58” for “Compound 10”, “at 4” for “at 2”, “separate 30” for “separate 50”, “with 9-fold” for “with 5-fold”, “eat 4” for “eat 2”
as §4

[4] = Pharmacokinetic test of Compound 35 and Compound 58 in mice (intravenous and intragastric); details: mouse, plasma, male CD-1 mice; for AUC(0-t): read-out: Curve Area (0-t) AUC0-last; for Cmax: read-out: Plasma Concentration Cmax; for Tmax: read-out: Time to Peak Tmax; for Vd: read-out: Apparent Volume of Distribution Vdss; for clearance: read-out: Clearance Rate CI; for AUC(0-inf): read-out: Curve Area (0-inf) AUC0-inf; for half-life: read-out: Half Life T1/2 (converted)
Description: With reference to Example 76, the pharmacokinetic behaviors of Compound 35 and Compound 58 in mice were investigated and their pharmacokinetic profiles were evaluated.
2. Experimental Protocol Refers to Example 76.
as §1, with “Compound 35 and Compound 58 were” for “Compound 10 was”, “was cross-collected” for “was collected”, “8, 24,” for “8,”, “and 48” for “and 24”, “tubes was” for “tubes were”, “eat 4” for “eat 2”
as §2

[5] = po, intragastric administration, 2 mg/kg
[6] = intravenous administration, 1 mg/kg

Compound | Concentration in Brain [3] | Kp at 4 h [3] | concentration at 4 h [3] | AUC(0-t) [4, 5] | Cmax [4, 5] | Tmax [4, 5] | Vd [4, 6] | clearance [4, 6] | AUC(0-inf) [4, 6] | AUC(0-t) [4, 6] | half-life [4, 6] | further results
CCc1nc(OCCO)c2cc(N3C(=S)N(c4ccc(C#N)c(C(F)(F)F)c4)C(=O)C3(C)C)cc(F)c2n1 [Compound 10] |  |  |  |  |  |  |  |  |  |  |  | bioavailability [1, 5]: 41.7%; AUC(0-inf) [1, 5]: 27.9 µM·h; AUC(0-t) [1, 5]: 26.3 µM·h; half-life [1, 5]: 5.5 h; Cmax ([1]; po, intragastric administration, 2 mg/kg, read-out: Plasma Concentration Cmax): 2.77 µM; Tmax ([1]; po, intragastric administration, 2 mg/kg, read-out: Time to Peak Tmax): 4 h; Vd ([1]; intravenous administration, 1 mg/kg, read-out: Apparent Volume of Distribution Vdss): 0.384 L/kg; clearance ([1]; intravenous administration, 1 mg/kg, read-out: Clearance Rate CI): 0.912 mL/min/kg; AUC(0-inf) [1, 6]: 33.5 µM·h; AUC(0-t) [1, 6]: 32.3 µM·h; half-life [1, 6]: 4.88 h; Concentration in Brain [2]: 67.38 ± 44.5 nmol/kg; Kp at 2 h ([2]; mouse, brain / plasma, oral, read-out: Brain to Blood Ratio): 0.0133 ± 0.0006; concentration at 2 h ([2]; mouse, plasma, oral): 5 ± 3.16 µM
CCc1cc(=O)n2cc(N3C(=S)N(c4ccc(C#N)c(C(F)(F)F)c4)C(=O)C3(C)C)cc(F)c2n1 [Compound 35] | 281 nmol/kg | 0.0742 | 4.12 µM | 110 µM·h | 5.78 µM | 6 h | 0.667 L/kg | 0.189 mL/min/kg | 194 µM·h | 58.7 µM·h | 45.1 h | bioavailability [4, 5]: 94%
CCc1cc(=O)n2cc(N3C(=S)N(c4ccc(C#N)c(Cl)c4)C(=O)C3(C)C)cc(F)c2n1 [Compound 58] | 265 nmol/kg | 0.0322 | 8.26 µM | 370 µM·h | 12.8 µM | 8 h | 0.248 L/kg | 0.0794 mL/min/kg | 447 µM·h | 271 µM·h | 36.6 h | 
